Results: ChEMBL document CHEMBL1201862, “PubChem BioAssay data set” (2004)
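Following 48 hours of exposure in 96-well plates, responses at five concentrations were used to interpolate endpoints linearly. GI50 = concentration required for 50% inhibition of growth.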 The source made the active and inactive calls. Rule as the data show it: active = GI50 up to about 1.1 µM and inactive = higher.

Key:
Test in all cases: inhibition of tumour cell growth, NCI panel, 48 h
786-0 = system: 786-0
A498 = system: A498
A549 = system: A549
ACHN = system: ACHN
BT-549 = system: BT-549
CAKI-1 = system: CAKI-1
CCRF-CEM = system: CCRF-CEM
COLO 205 = system: COLO 205
DU-145 = system: DU-145
EKVX = system: EKVX
HCC 2998 = system: HCC 2998
HCT-116 = system: HCT-116
HCT-15 = system: HCT-15
HL-60 = system: HL-60
HOP-62 = system: HOP-62
HOP-92 = system: HOP-92
HT-29 = system: HT-29
Hs-578T = system: Hs-578T
IGROV-1 = system: IGROV-1
K562 = system: K562
KM12 = system: KM12
LOX IMVI = system: LOX IMVI
M14 = system: M14
MCF7 = system: MCF7
MDA-MB-435 = system: MDA-MB-435
MDA-N = system: MDA-N
MOLT-4 = system: MOLT-4
Malme-3M = system: Malme-3M
NCI-H226 = system: NCI-H226
NCI-H23 = system: NCI-H23
NCI-H460 = system: NCI-H460
NCI-H522 = system: NCI-H522
NCI/ADR-RES = system: NCI/ADR-RES
OVCAR-3 = system: OVCAR-3
OVCAR-4 = system: OVCAR-4
OVCAR-5 = system: OVCAR-5
OVCAR-8 = system: OVCAR-8
PC-3 = system: PC-3
RPMI-8226 = system: RPMI-8226
RXF 393 = system: RXF 393
SF-268 = system: SF-268
SF-295 = system: SF-295
SF-539 = system: SF-539
SK-MEL-28 = system: SK-MEL-28
SK-MEL-2 = system: SK-MEL-2
SK-MEL-5 = system: SK-MEL-5
SN12C = system: SN12C
SNB-19 = system: SNB-19
SNB-75 = system: SNB-75
SR = system: SR
SW-620 = system: SW-620
T47D = system: T47D
TK-10 = system: TK-10
U-251 = system: U-251
UACC-257 = system: UACC-257
UACC-62 = system: UACC-62
UO-31 = system: UO-31
SK-OV-3 = system: SK-OV-3

In the case of C/C=N\n1c(C)n[nH]c1=O, the GI50 (786-0) is reported as > 100 µM (inactive), the GI50 (A498) is reported as > 100 µM (inactive) and the GI50 (A549) is reported as > 100 µM (inactive). The GI50 (ACHN) was > 100 µM (inactive), the GI50 (BT-549) was > 100 µM (inactive) and the GI50 (CAKI-1) was > 100 µM (inactive). For the same molecule, the GI50 (CCRF-CEM) was > 100 µM (inactive), the GI50 (COLO 205) was > 100 µM (inactive) and the GI50 (DU-145) was > 100 µM (inactive). The GI50 (EKVX) was > 100 µM (inactive), the GI50 (HCC 2998) was > 100 µM (inactive) and the GI50 (HCT-116) was > 100 µM (inactive). The GI50 (HCT-15) was greater than 100 µM, the GI50 (HL-60) was > 100 µM (inactive) and the GI50 (HOP-62) was > 100 µM (inactive). For the same molecule, the GI50 (HOP-92) was > 100 µM (inactive), the GI50 (HT-29) was > 100 µM (inactive) and the GI50 (Hs-578T) was > 100 µM (inactive). The GI50 (IGROV-1) was > 100 µM (inactive), the GI50 (K562) was > 100 µM (inactive) and the GI50 (KM12) was > 100 µM (inactive). The GI50 (LOX IMVI) was > 100 µM (inactive), the GI50 (M14) was > 100 µM (inactive) and the GI50 (MCF7) was > 100 µM (inactive). For the same molecule, the GI50 (MDA-MB-435) was > 100 µM (inactive), the GI50 (MDA-N) was > 100 µM (inactive) and the GI50 (MOLT-4) was > 100 µM (inactive). For the same molecule, the GI50 (Malme-3M) was > 100 µM (inactive), the GI50 (NCI-H226) was > 100 µM (inactive) and the GI50 (NCI-H23) was > 100 µM (inactive). For the same molecule, the GI50 (NCI-H460) was > 100 µM (inactive), the GI50 (NCI-H522) was > 100 µM (inactive) and the GI50 (NCI/ADR-RES) was > 100 µM (inactive). The GI50 (OVCAR-3) was > 100 µM (inactive), the GI50 (OVCAR-4) was > 100 µM (inactive) and the GI50 (OVCAR-5) was > 100 µM (inactive). The GI50 (OVCAR-8) was > 100 µM (inactive), the GI50 (PC-3) was > 100 µM (inactive) and the GI50 (RPMI-8226) was > 100 µM (inactive). The GI50 (RXF 393) was > 100 µM (inactive), the GI50 (SF-268) was > 100 µM (inactive) and the GI50 (SF-295) was > 100 µM (inactive). The GI50 (SF-539) was > 100 µM (inactive), the GI50 (SK-MEL-28) was > 100 µM (inactive) and the GI50 (SK-MEL-2) was > 100 µM (inactive). The GI50 (SK-MEL-5) was > 100 µM (inactive), the GI50 (SN12C) was > 100 µM (inactive) and the GI50 (SNB-19) was > 100 µM (inactive). For the same molecule, the GI50 (SNB-75) was > 100 µM (inactive), the GI50 (SR) was > 100 µM (inactive) and the GI50 (SW-620) was > 100 µM (inactive). For the same molecule, the GI50 (T47D) was > 100 µM (inactive), the GI50 (TK-10) was > 100 µM (inactive) and the GI50 (U-251) was > 100 µM (inactive). For the same molecule, the GI50 (UACC-257) was > 100 µM (inactive), the GI50 (UACC-62) was > 100 µM (inactive) and the GI50 (UO-31) was > 100 µM (inactive).
For CC1(C(=O)O)C[C@](C)(C(=O)OCc2ccccc2)C[C@](C)(C(=O)OCc2ccccc2)C1 (stereo partly drawn), the GI50 (786-0) was 32 µM (inactive), the GI50 (A549) was 35.6 µM (inactive) and the GI50 (ACHN) was 22.9 µM (inactive). For the same molecule, the GI50 (BT-549) was 26.5 µM (inactive), the GI50 (CAKI-1) was 25.4 µM (inactive) and the GI50 (CCRF-CEM) was 34.3 µM (inactive). For the same molecule, the GI50 (COLO 205) was 18.5 µM (inactive), the GI50 (DU-145) was 29.8 µM (inactive) and the GI50 (EKVX) was 25.1 µM (inactive). For the same molecule, the GI50 (HCC 2998) was 27 µM (inactive), the GI50 (HCT-116) was 24.1 µM (inactive) and the GI50 (HCT-15) was 25.5 µM. The GI50 (HL-60) was 22.4 µM (inactive), the GI50 (HOP-62) was 30.5 µM (inactive) and the GI50 (HOP-92) was 19.6 µM (inactive). The GI50 (HT-29) was 31.8 µM (inactive), the GI50 (Hs-578T) was 30.3 µM (inactive) and the GI50 (IGROV-1) was 22.8 µM (inactive). For the same molecule, the GI50 (K562) was 37 µM (inactive), the GI50 (KM12) was 31.2 µM (inactive) and the GI50 (LOX IMVI) was 30.8 µM (inactive). The GI50 (M14) was 45.6 µM (inactive), the GI50 (MCF7) was 34.1 µM (inactive) and the GI50 (MDA-MB-435) was 40.5 µM (inactive). For the same molecule, the GI50 (MDA-N) was 36 µM (inactive), the GI50 (MOLT-4) was 25.4 µM (inactive) and the GI50 (Malme-3M) was 63.2 µM (inactive). For the same molecule, the GI50 (NCI-H226) was 27.3 µM (inactive), the GI50 (NCI-H23) was 25.1 µM (inactive) and the GI50 (NCI-H460) was 23.9 µM (inactive). For the same molecule, the GI50 (NCI-H522) was 21.6 µM (inactive), the GI50 (NCI/ADR-RES) was 29.4 µM (inactive) and the GI50 (OVCAR-3) was 26.4 µM (inactive). The GI50 (OVCAR-4) was 39.8 µM (inactive), the GI50 (OVCAR-5) was 34.3 µM (inactive) and the GI50 (OVCAR-8) was 34.5 µM (inactive). The GI50 (PC-3) was 26.2 µM (inactive), the GI50 (RPMI-8226) was 26.2 µM (inactive) and the GI50 (RXF 393) was 21.6 µM (inactive). The GI50 (SF-268) was 47.9 µM (inactive), the GI50 (SF-295) was 21.2 µM (inactive) and the GI50 (SF-539) was 25.8 µM (inactive). The GI50 (SK-MEL-28) was 50.2 µM (inactive), the GI50 (SK-MEL-2) was 17.5 µM (inactive) and the GI50 (SK-MEL-5) was 32.7 µM (inactive). The GI50 (SK-OV-3) was 32.6 µM (inactive), the GI50 (SN12C) was 30.2 µM (inactive) and the GI50 (SNB-19) was 45.7 µM (inactive). For the same molecule, the GI50 (SNB-75) was 13.7 µM (inactive), the GI50 (SR) was 29.1 µM (inactive) and the GI50 (SW-620) was 47 µM (inactive). The GI50 (T47D) was 35.2 µM (inactive), the GI50 (TK-10) was 43.3 µM (inactive) and the GI50 (UACC-257) was 38.9 µM (inactive). For the same molecule, the GI50 (UACC-62) was 19 µM (inactive) and the GI50 (UO-31) was 21.9 µM (inactive).
